Measured values published in patent US8729082B2, “Substituted imidazoquinoxalines” (Bayer Intellectual Property GmbH, priority 2009, dated 2014).

biological target: T1, human kinase Mps-1 (Homo sapiens, UniProt P33981); assay: Mps-1 kinase assay (HTRF); format: biochemical; conditions: lowATP; mean; read-out: Mps1 lowATP mean IC50
T1 construct: N-terminally GST-tagged human full length recombinant Mps-1 kinase; purchased Invitrogen, Karslruhe, Germany PV4071
T1 sequence (P33981 1-857): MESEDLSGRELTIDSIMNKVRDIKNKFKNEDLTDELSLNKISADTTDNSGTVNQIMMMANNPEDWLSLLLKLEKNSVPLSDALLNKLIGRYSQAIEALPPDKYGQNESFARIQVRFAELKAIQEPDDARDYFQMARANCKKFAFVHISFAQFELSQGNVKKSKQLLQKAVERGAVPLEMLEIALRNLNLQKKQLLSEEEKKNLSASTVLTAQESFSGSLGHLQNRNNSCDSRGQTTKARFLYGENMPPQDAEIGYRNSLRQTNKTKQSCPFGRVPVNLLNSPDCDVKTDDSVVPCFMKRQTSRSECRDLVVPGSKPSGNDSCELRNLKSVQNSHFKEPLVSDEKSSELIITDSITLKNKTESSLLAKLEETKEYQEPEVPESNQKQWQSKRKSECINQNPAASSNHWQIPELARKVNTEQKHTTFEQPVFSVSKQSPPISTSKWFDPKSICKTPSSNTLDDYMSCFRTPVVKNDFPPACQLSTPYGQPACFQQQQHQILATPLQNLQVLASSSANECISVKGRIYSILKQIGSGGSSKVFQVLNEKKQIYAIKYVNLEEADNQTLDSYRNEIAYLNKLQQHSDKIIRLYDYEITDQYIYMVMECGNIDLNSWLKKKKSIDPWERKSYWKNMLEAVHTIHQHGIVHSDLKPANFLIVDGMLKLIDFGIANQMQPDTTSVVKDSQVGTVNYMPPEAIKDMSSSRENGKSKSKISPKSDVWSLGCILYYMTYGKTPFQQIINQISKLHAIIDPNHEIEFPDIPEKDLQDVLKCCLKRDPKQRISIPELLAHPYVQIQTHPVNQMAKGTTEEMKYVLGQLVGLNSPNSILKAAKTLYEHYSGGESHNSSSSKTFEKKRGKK
Procedure, shortened: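 HTRF readout: EDTA-stopped reactions incubated 1 h with europium anti-phospho(Ser/Thr) antibody and streptavidin-XLent, emission ratio 665/620 nm after 350 nm excitation. Kinase step: compound pre-bound 15 min to ~1 nM GST-Mps-1, then 60 min at 22 °C with ATP and biotin-peptide substrate; inhibition scaled between no-inhibitor (0%) and no-enzyme (100%) controls.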

| SMILES | IC50 |
| --- | --- |
| N#Cc1ccc2c(c1)nc(NCCCCO)c1ncc(-c3ccc(C(=O)NC4CC4)c(Cl)c3)n12 [Example 2-239, 2-chloro-4-{7-cyano-4-[(4-hydroxybutyl)amino]imidazo[1,2-a]quinoxalin-1-yl}-N-cyclopropylbenzamide] | 1.04 µM |
| N#Cc1ccc2c(c1)nc(NCc1ccccc1)c1ncc(-c3ccc(C(=O)NC4CC4)c(Cl)c3)n12 [Example 2-240, 4-[4-(benzylamino)-7-cyanoimidazo[1,2-a]quinoxalin-1-yl]-2-chloro-N-cyclopropylbenzamide] | 0.889 µM |
| N#Cc1ccc2c(c1)nc(NCc1cccs1)c1ncc(-c3ccc(C(=O)NC4CC4)c(Cl)c3)n12 [Example 2-241, 2-chloro-4-{7-cyano-4-[(thiophen-2-ylmethyl)amino]imidazo[1,2-a]quinoxalin-1-yl}-N-cyclopropylbenzamide] | 0.546 µM |
| N#Cc1ccc2c(c1)nc(NCCCO)c1ncc(-c3ccc(C(=O)NC4CC4)c(Cl)c3)n12 [Example 2-242, 2-chloro-4-{7-cyano-4-[(3-hydroxypropyl)amino]imidazo[1,2-a]quinoxalin-1-yl}-N-cyclopropylbenzamide] | 3.78 µM |
| CCCCNc1nc2cc(C#N)ccc2n2c(-c3ccc(C(=O)NC4CC4)c(Cl)c3)cnc12 [Example 2-243, 4-[4-(butylamino)-7-cyanoimidazo[1,2-a]quinoxalin-1-yl]-2-chloro-N-cyclopropylbenzamide] | 0.506 µM |
| CC(=O)NCCNc1nc2cc(C#N)ccc2n2c(-c3ccc(C(=O)NC4CC4)c(Cl)c3)cnc12 [Example 2-244, 4-(4-{[2-(acetylamino)ethyl]amino}-7-cyanoimidazo[1,2-a]quinoxalin-1-yl)-2-chloro-N-cyclopropylbenzamide] | 8.82 µM |
| N#Cc1ccc2c(c1)nc(NCc1cccnc1)c1ncc(-c3ccc(C(=O)NC4CC4)c(Cl)c3)n12 [Example 2-245, 2-chloro-4-{7-cyano-4-[(pyridin-3-ylmethyl)amino]imidazo[1,2-a]quinoxalin-1-yl}-N-cyclopropylbenzamide] | 1.12 µM |
| N#Cc1ccc2c(c1)nc(NCc1ccncc1)c1ncc(-c3ccc(C(=O)NC4CC4)c(Cl)c3)n12 [Example 2-246, 2-chloro-4-{7-cyano-4-[(pyridin-4-ylmethyl)amino]imidazo[1,2-a]quinoxalin-1-yl}-N-cyclopropylbenzamide] | 1.3 µM |
| CC(C)CNc1nc2cc(C#N)ccc2n2c(-c3ccc(C(=O)NC4CC4)c(Cl)c3)cnc12 [Example 2-247, 2-chloro-4-{7-cyano-4-[(2-methylpropyl)amino]imidazo[1,2-a]quinoxalin-1-yl}-N-cyclopropylbenzamide] | 0.339 µM |
| N#Cc1ccc2c(c1)nc(NCCC(N)=O)c1ncc(-c3ccc(C(=O)NC4CC4)c(Cl)c3)n12 [Example 2-248, 4-{4-[(3-amino-3-oxopropyl)amino]-7-cyanoimidazo[1,2-a]quinoxalin-1-yl}-2-chloro-N-cyclopropylbenzamide] | 5.83 µM |
| COCCCNc1nc2cc(C#N)ccc2n2c(-c3ccc(C(=O)NC4CC4)c(Cl)c3)cnc12 [Example 2-249, 2-chloro-4-{7-cyano-4-[(3-methoxypropyl)amino]imidazo[1,2-a]quinoxalin-1-yl}-N-cyclopropylbenzamide] | 2.4 µM |
| CC(C)(C)OC(=O)NCCCNc1nc2cc(C#N)ccc2n2c(-c3ccc(C(=O)NC4CC4)c(Cl)c3)cnc12 [Example 2-250, tert-butyl [3-({1-[3-chloro-4-(cyclopropylcarbamoyl)phenyl]-7-cyanoimidazo[1,2-a]quinoxalin-4-yl}amino)propyl]carbamate] | 1.46 µM |
| Cn1ccc(CNc2nc3cc(C#N)ccc3n3c(-c4ccc(C(=O)NC5CC5)c(Cl)c4)cnc23)n1 [Example 2-251, 2-chloro-4-(7-cyano-4-{[(1-methyl-1H-pyrazol-3-yl)methyl]amino}imidazo[1,2-a]quinoxalin-1-yl)-N-cyclopropylbenzamide] | 2.54 µM |
| Cn1nccc1CNc1nc2cc(C#N)ccc2n2c(-c3ccc(C(=O)NC4CC4)c(Cl)c3)cnc12 [Example 2-252, 2-chloro-4-(7-cyano-4-{[(1-methyl-1H-pyrazol-5-yl)methyl]amino}imidazo[1,2-a]quinoxalin-1-yl)-N-cyclopropylbenzamide] | 0.852 µM |
| Cn1cc(CNc2nc3cc(C#N)ccc3n3c(-c4ccc(C(=O)NC5CC5)c(Cl)c4)cnc23)cn1 [Example 2-253, 2-chloro-4-(7-cyano-4-{[(1-methyl-1H-pyrazol-4-yl)methyl]amino}imidazo[1,2-a]quinoxalin-1-yl)-N-cyclopropylbenzamide] | 1.22 µM |
| N#Cc1ccc2c(c1)nc(NCC(O)CO)c1ncc(-c3ccc(C(=O)NC4CC4)c(Cl)c3)n12 (stereo not drawn) [Example 2-254, 2-chloro-4-{7-cyano-4-[(2,3-dihydroxypropyl)amino]imidazo[1,2-a]quinoxalin-1-yl}-N-cyclopropylbenzamide] | 5.53 µM |
| CC(C)CNc1nc2ccccc2n2c(-c3ccc(C(=O)Nc4cc[nH]n4)cc3)cnc12 [Example 3-1, 4-{4-[(2-methylpropyl)amino]imidazo[1,2-a]quinoxalin-1-yl}-N-(1H-pyrazol-3-yl)benzamide] | 3.95 µM |
| CCCNC(=O)c1ccc(-c2cnc3c(NCC(C)C)nc4ccccc4n23)cc1 [Example 3-2, 4-{4-[(2-methylpropyl)amino]imidazo[1,2-a]quinoxalin-1-yl}-N-propylbenzamide] | 0.369 µM |
| CCN(CC)C(=O)c1ccc(-c2cnc3c(NCC(C)C)nc4ccccc4n23)cc1 [Example 3-3, N,N-diethyl-4-{4-[(2-methylpropyl)amino]imidazo[1,2-a]quinoxalin-1-yl}benzamide] | 19.7 µM |
| CC(C)CNc1nc2ccccc2n2c(-c3ccc(C(=O)NCCO)cc3)cnc12 [Example 3-4, N-(2-hydroxyethyl)-4-{4-[(2-methylpropyl)amino]imidazo[1,2-a]quinoxalin-1-yl}benzamide] | 1.79 µM |
| CC(C)CNc1nc2ccccc2n2c(-c3ccc(C(=O)NCCCN4CCCC4=O)cc3)cnc12 [Example 3-5, 4-{4-[(2-methylpropyl)amino]imidazo[1,2-a]quinoxalin-1-yl}-N-[3-(2-oxopyrrolidin-1-yl)propyl]benzamide] | 15.3 µM |
| CC(C)CNc1nc2ccccc2n2c(-c3ccc(C(=O)NC4CCN(Cc5ccccc5)CC4)cc3)cnc12 [Example 3-7, N-(1-benzylpiperidin-4-yl)-4-{4-[(2-methylpropyl)amino]imidazo[1,2-a]quinoxalin-1-yl}benzamide] | 15.8 µM |
| CCNC(=O)c1ccc(-c2cnc3c(NCC(C)C)nc4ccccc4n23)cc1 [Example 3-8, N-ethyl-4-{4-[(2-methylpropyl)amino]imidazo[1,2-a]quinoxalin-1-yl}benzamide] | 0.134 µM |
| CC(C)CNc1nc2ccccc2n2c(-c3ccc(C(=O)Nc4ccc(S(N)(=O)=O)cc4)cc3)cnc12 [Example 3-9, 4-{4-[(2-methylpropyl)amino]imidazo[1,2-a]quinoxalin-1-yl}-N-(4-sulfamoylphenyl)benzamide] | 6.59 µM |
| CC(C)CNc1nc2ccccc2n2c(-c3ccc(C(=O)Nc4cccc(C(N)=O)c4)cc3)cnc12 [Example 3-10, N-(3-carbamoylphenyl)-4-{4-[(2-methylpropyl)amino]imidazo[1,2-a]quinoxalin-1-yl}benzamide] | 0.865 µM |
| CC(C)CNc1nc2ccccc2n2c(-c3ccc(C(=O)Nc4ccccc4C(N)=O)cc3)cnc12 [Example 3-11, N-(2-carbamoylphenyl)-4-{4-[(2-methylpropyl)amino]imidazo[1,2-a]quinoxalin-1-yl}benzamide] | 19.4 µM |
| CC(C)CNc1nc2ccccc2n2c(-c3ccc(C(=O)NCC(N)=O)cc3)cnc12 [Example 3-12, N-(2-amino-2-oxoethyl)-4-{4-[(2-methylpropyl)amino]imidazo[1,2-a]quinoxalin-1-yl}benzamide] | 1.51 µM |
| C#CCNC(=O)c1ccc(-c2cnc3c(NCC(C)C)nc4ccccc4n23)cc1 [Example 3-13, 4-{4-[(2-methylpropyl)amino]imidazo[1,2-a]quinoxalin-1-yl}-N-(prop-2-yn-1-yl)benzamide] | 0.0412 µM |
| CC(=O)Nc1cccc(NC(=O)c2ccc(-c3cnc4c(NCC(C)C)nc5ccccc5n34)cc2)c1 [Example 3-14, N-[3-(acetylamino)phenyl]-4-{4-[(2-methylpropyl)amino]imidazo[1,2-a]quinoxalin-1-yl}benzamide] | 0.624 µM |
| CC(C)CNc1nc2ccccc2n2c(-c3ccc(C(=O)NC(C)CO)cc3)cnc12 (stereo not drawn) [Example 3-15, N-(1-hydroxypropan-2-yl)-4-{4-[(2-methylpropyl)amino]imidazo[1,2-a]quinoxalin-1-yl}benzamide] | 1.09 µM |
